Reference: ChEMBL document CHEMBL3046876, “Effect of Buprofezin on Oviposition of Brown Planthopper, Nilaparvata lugens, at Sub-lethal Dose” (1996)

Key:
Assay type in all cases: functional
[1] = tested on: Nilaparvata lugens; experiment: Effect on life span in Nilaparvata lugens (brown planthopper) adult at 0.00064 ppm measured after 7 days relative to control
[2] = tested on: Nilaparvata lugens; experiment: Effect on life span in Nilaparvata lugens (brown planthopper) adult at 0.016 ppm measured after 7 days relative to control
[3] = tested on: Nilaparvata lugens; experiment: Effect on life span in Nilaparvata lugens (brown planthopper) adult at 0.4 ppm measured after 7 days relative to control
[4] = tested on: Nilaparvata lugens; experiment: Effect on life span in Nilaparvata lugens (brown planthopper) adult at 10 ppm measured after 7 days relative to control
[5] = tested on: Nilaparvata lugens; experiment: Effect on development of ovarioles in Nilaparvata lugens (brown planthopper) assessed as number of ovarioles at 0.00064 ppm measured after 7 days relative to control
[6] = tested on: Nilaparvata lugens; experiment: Effect on development of ovarioles in Nilaparvata lugens (brown planthopper) assessed as number of ovarioles at 0.016 ppm measured after 7 days relative to control
[7] = tested on: Nilaparvata lugens; experiment: Effect on development of ovarioles in Nilaparvata lugens (brown planthopper) assessed as number of ovarioles at 0.4 ppm measured after 7 days relative to control
[8] = tested on: Nilaparvata lugens; experiment: Effect on egg maturity in Nilaparvata lugens (brown planthopper) at 0.00064 ppm measured after 7 days relative to control
[9] = tested on: Nilaparvata lugens; experiment: Effect on egg maturity in Nilaparvata lugens (brown planthopper) at 0.016 ppm measured after 7 days relative to control
[10] = tested on: Nilaparvata lugens; experiment: Effect on egg maturity in Nilaparvata lugens (brown planthopper) at 0.4 ppm measured after 7 days relative to control
[11] = tested on: Nilaparvata lugens; experiment: Effect on hatchability in Nilaparvata lugens (brown planthopper) at 0.016 ppm measured after 7 days relative to control
[12] = tested on: Nilaparvata lugens; experiment: Effect on oviposition in Nilaparvata lugens (brown planthopper) assessed as eggs laid at 0.0032 ppm measured after 7 days relative to control
[13] = tested on: Nilaparvata lugens; experiment: Effect on oviposition in Nilaparvata lugens (brown planthopper) assessed as eggs laid at 0.00064 ppm measured after 7 days relative to control
[14] = tested on: Nilaparvata lugens; experiment: Effect on oviposition in Nilaparvata lugens (brown planthopper) assessed as eggs laid at 0.08 ppm measured after 7 days relative to control
[15] = tested on: Nilaparvata lugens; experiment: Effect on oviposition in Nilaparvata lugens (brown planthopper) assessed as eggs laid at 0.016 ppm measured after 7 days relative to control
[16] = tested on: Nilaparvata lugens; experiment: Effect on oviposition in Nilaparvata lugens (brown planthopper) assessed as eggs laid at 0.4 ppm measured after 7 days relative to control
[17] = tested on: Nilaparvata lugens; experiment: Effect on oviposition in Nilaparvata lugens (brown planthopper) assessed as eggs laid at 2 ppm measured after 7 days relative to control
[18] = tested on: Nilaparvata lugens; experiment: Effect on oviposition in Nilaparvata lugens (brown planthopper) assessed as eggs laid at 10 ppm measured after 7 days relative to control
[19] = tested on: Nilaparvata lugens; experiment: Insecticidal activity against Nilaparvata lugens (brown planthopper) assessed as mortality at 0.0000256 ppm measured after 7 days relative to control; settings: 168 h
[20] = tested on: Nilaparvata lugens; experiment: Insecticidal activity against Nilaparvata lugens (brown planthopper) assessed as mortality at 0.000128 ppm measured after 7 days relative to control; settings: 168 h
[21] = tested on: Nilaparvata lugens; experiment: Insecticidal activity against Nilaparvata lugens (brown planthopper) assessed as mortality at 0.00064 ppm measured after 7 days relative to control; settings: 168 h
[22] = tested on: Nilaparvata lugens; experiment: Insecticidal activity against Nilaparvata lugens (brown planthopper) assessed as mortality at 0.0032 ppm measured after 7 days relative to control; settings: 168 h
[23] = tested on: Nilaparvata lugens; experiment: Insecticidal activity against Nilaparvata lugens (brown planthopper) assessed as mortality at 0.016 ppm measured after 7 days relative to control; settings: 168 h
[24] = tested on: Nilaparvata lugens; experiment: Insecticidal activity against Nilaparvata lugens (brown planthopper) fifth-instar nymphs assessed as mortality at 50 ppm measured after 7 days; settings: 168 h
[25] = tested on: Nilaparvata lugens; experiment: Effect on hatchability in Nilaparvata lugens (brown planthopper) at 0.08 ppm measured after 7 days relative to control
[26] = tested on: Nilaparvata lugens; experiment: Effect on hatchability in Nilaparvata lugens (brown planthopper) at 0.4 ppm measured after 7 days relative to control
[27] = tested on: Nilaparvata lugens; experiment: Effect on hatchability in Nilaparvata lugens (brown planthopper) at 2 ppm measured after 7 days relative to control
[28] = tested on: Nilaparvata lugens; experiment: Effect on oviposition in Nilaparvata lugens (brown planthopper) assessed as eggs laid at 0.0000256 ppm measured after 7 days relative to control
[29] = tested on: Nilaparvata lugens; experiment: Effect on oviposition in Nilaparvata lugens (brown planthopper) assessed as eggs laid at 0.000128 ppm measured after 7 days relative to control
[30] = tested on: Nilaparvata lugens; experiment: Insecticidal activity against Nilaparvata lugens (brown planthopper) assessed as mortality at 0.08 ppm measured after 7 days relative to control; settings: 168 h
[31] = tested on: Nilaparvata lugens; experiment: Insecticidal activity against Nilaparvata lugens (brown planthopper) assessed as mortality at 0.4 ppm measured after 7 days relative to control; settings: 168 h
[32] = tested on: Nilaparvata lugens; experiment: Insecticidal activity against Nilaparvata lugens (brown planthopper) assessed as mortality at 2 ppm measured after 7 days relative to control; settings: 168 h
[33] = tested on: Nilaparvata lugens; experiment: Insecticidal activity against Nilaparvata lugens (brown planthopper) assessed as mortality at 10 ppm measured after 7 days relative to control; settings: 168 h
[34] = tested on: Nilaparvata lugens; experiment: Insecticidal activity against Nilaparvata lugens (brown planthopper) assessed as mortality at 50 ppm measured after 7 days relative to control; settings: 168 h
[35] = tested on: Nilaparvata lugens; experiment: Insecticidal activity against Nilaparvata lugens (brown planthopper) emerged female adult assessed as mortality at 0.0000256 ppm measured after 7 days relative to control; settings: 168 h
[36] = tested on: Nilaparvata lugens; experiment: Insecticidal activity against Nilaparvata lugens (brown planthopper) emerged female adult assessed as mortality at 0.000128 ppm measured after 7 days relative to control; settings: 168 h
[37] = tested on: Nilaparvata lugens; experiment: Insecticidal activity against Nilaparvata lugens (brown planthopper) emerged female adult assessed as mortality at 0.0032 ppm measured after 7 days relative to control; settings: 168 h
[38] = tested on: Nilaparvata lugens; experiment: Insecticidal activity against Nilaparvata lugens (brown planthopper) emerged female adult assessed as mortality at 0.00064 ppm measured after 7 days relative to control; settings: 168 h
[39] = tested on: Nilaparvata lugens; experiment: Insecticidal activity against Nilaparvata lugens (brown planthopper) emerged female adult assessed as mortality at 0.016 ppm measured after 7 days relative to control; settings: 168 h
[40] = tested on: Nilaparvata lugens; experiment: Insecticidal activity against Nilaparvata lugens (brown planthopper) emerged female adult assessed as mortality at 0.08 ppm measured after 7 days relative to control; settings: 168 h
[41] = tested on: Nilaparvata lugens; experiment: Insecticidal activity against Nilaparvata lugens (brown planthopper) emerged female adult assessed as mortality at 0.4 ppm measured after 7 days relative to control; settings: 168 h
[42] = tested on: Nilaparvata lugens; experiment: Insecticidal activity against Nilaparvata lugens (brown planthopper) emerged female adult assessed as mortality at 2 ppm measured after 7 days relative to control; settings: 168 h
[43] = tested on: Nilaparvata lugens; experiment: Insecticidal activity against Nilaparvata lugens (brown planthopper) emerged female adult assessed as mortality at 10 ppm measured after 7 days relative to control; settings: 168 h
[44] = tested on: Nilaparvata lugens; experiment: Insecticidal activity against Nilaparvata lugens (brown planthopper) fifth-instar nymphs assessed as mortality at 0.0000256 ppm measured after 7 days; settings: 168 h
[45] = tested on: Nilaparvata lugens; experiment: Insecticidal activity against Nilaparvata lugens (brown planthopper) fifth-instar nymphs assessed as mortality at 0.000128 ppm measured after 7 days; settings: 168 h
[46] = tested on: Nilaparvata lugens; experiment: Insecticidal activity against Nilaparvata lugens (brown planthopper) fifth-instar nymphs assessed as mortality at 0.00064 ppm measured after 7 days; settings: 168 h
[47] = tested on: Nilaparvata lugens; experiment: Insecticidal activity against Nilaparvata lugens (brown planthopper) fifth-instar nymphs assessed as mortality at 0.0032 ppm measured after 7 days; settings: 168 h
[48] = tested on: Nilaparvata lugens; experiment: Insecticidal activity against Nilaparvata lugens (brown planthopper) fifth-instar nymphs assessed as mortality at 0.08 ppm measured after 7 days; settings: 168 h
[49] = tested on: Nilaparvata lugens; experiment: Insecticidal activity against Nilaparvata lugens (brown planthopper) fifth-instar nymphs assessed as mortality at 0.016 ppm measured after 7 days; settings: 168 h
[50] = tested on: Nilaparvata lugens; experiment: Insecticidal activity against Nilaparvata lugens (brown planthopper) fifth-instar nymphs assessed as mortality at 0.4 ppm measured after 7 days; settings: 168 h
[51] = tested on: Nilaparvata lugens; experiment: Insecticidal activity against Nilaparvata lugens (brown planthopper) fifth-instar nymphs assessed as mortality at 2 ppm measured after 7 days; settings: 168 h
[52] = tested on: Nilaparvata lugens; experiment: Insecticidal activity against Nilaparvata lugens (brown planthopper) fifth-instar nymphs assessed as mortality at 10 ppm measured after 7 days; settings: 168 h
[53] = tested on: Nilaparvata lugens; experiment: Effect on hatchability in Nilaparvata lugens (brown planthopper) at 10 ppm measured after 7 days relative to control

Molecule `CC(C)N1C(=O)N(c2ccccc2)CS/C1=N\C(C)(C)C` [BUPROFEZIN] has an Activity [1] of 106%, an Activity [2] of 101% and an Activity [3] of 78%. It also gave an Activity [4] of 28%, an Activity [5] of 103% and an Activity [6] of 106%. It also gave an Activity [7] of 107%, an Activity [8] of 98% and an Activity [9] of 106%. The Activity [10] was 100%, the Activity [11] was 96% and the Activity [12] was 115%. The Activity [13] was 88%, the Activity [14] was 111% and the Activity [15] was 92%. It also gave an Activity [16] of 79%, an Activity [17] of 36% and an Activity [18] of 0%. The mortality at 2.56e-05 ppm [19] was 0%, the mortality at 0.000128 ppm [20] was 11% and the mortality at 0.00064 ppm [21] was 0%. For the same molecule, the mortality at 0.0032 ppm [22] was 0%, the mortality at 0.016 ppm [23] was 3% and the mortality at 50 ppm [24] was 100%. It also gave an Activity [25] of 98%, an Activity [26] of 97% and an Activity [27] of 74%. It also gave an Activity [28] of 97%, an Activity [29] of 117% and a mortality at 0.08 ppm [30] of 9%. It also gave a mortality at 0.4 ppm [31] of 19%, a mortality at 2 ppm [32] of 69% and a mortality at 10 ppm [33] of 95%. The mortality at 50 ppm [34] was 100%, the mortality at 2.56e-05 ppm [35] was 0% and the mortality at 0.000128 ppm [36] was 11%. The mortality at 0.0032 ppm [37] was 0%, the mortality at 0.00064 ppm [38] was 0% and the mortality at 0.016 ppm [39] was 3%. The mortality at 0.08 ppm [40] was 9%, the mortality at 0.4 ppm [41] was 13% and the mortality at 2 ppm [42] was 69%. For the same molecule, the mortality at 10 ppm [43] was 57%, the mortality at 2.56e-05 ppm [44] was 0% and the mortality at 0.000128 ppm [45] was 0%. The mortality at 0.00064 ppm [46] was 0%, the mortality at 0.0032 ppm [47] was 0% and the mortality at 0.08 ppm [48] was 0%. For the same molecule, the mortality at 0.016 ppm [49] was 0%, the mortality at 0.4 ppm [50] was 7% and the mortality at 2 ppm [51] was 0%. For the same molecule, the mortality at 10 ppm [52] was 89%.

Molecule `CC1(C)[C@H](C(=O)O[C@H](C#N)c2cccc(Oc3ccccc3)c2)[C@@H]1C=C(Br)Br` [DELTAMETHRIN] has an Activity [1] of 120%, an Activity [2] of 102% and an Activity [3] of 125%. The Activity [4] was 112%, the Activity [5] was 102% and the Activity [6] was 133%. The Activity [7] was 114%, the Activity [8] was 110% and the Activity [9] was 131%. The Activity [10] was 113%, the Activity [11] was 98% and the Activity [12] was 136%. For the same molecule, the Activity [13] was 116%, the Activity [14] was 112% and the Activity [15] was 128%. For the same molecule, the Activity [16] was 124%, the Activity [17] was 109% and the Activity [18] was 101%. The mortality at 2.56e-05 ppm [19] was 4%, the mortality at 0.000128 ppm [20] was 0% and the mortality at 0.00064 ppm [21] was 4%. It also gave a mortality at 0.0032 ppm [22] of 0%, a mortality at 0.016 ppm [23] of 9% and a mortality at 50 ppm [24] of 100%. The Activity [25] was 98%, the Activity [26] was 94% and the Activity [27] was 92%. For the same molecule, the Activity [53] was 98%, the Activity [28] was 107% and the Activity [29] was 105%. It also gave a mortality at 0.08 ppm [30] of 2%, a mortality at 0.4 ppm [31] of 9% and a mortality at 2 ppm [32] of 4%. It also gave a mortality at 10 ppm [33] of 40%, a mortality at 50 ppm [34] of 100% and a mortality at 2.56e-05 ppm [35] of 4%. For the same molecule, the mortality at 0.000128 ppm [36] was 0%, the mortality at 0.0032 ppm [37] was 0% and the mortality at 0.00064 ppm [38] was 4%. The mortality at 0.016 ppm [39] was 9%, the mortality at 0.08 ppm [40] was 0% and the mortality at 0.4 ppm [41] was 0%. The mortality at 2 ppm [42] was 0%, the mortality at 10 ppm [43] was 0% and the mortality at 2.56e-05 ppm [44] was 0%. It also gave a mortality at 0.000128 ppm [45] of 0%, a mortality at 0.00064 ppm [46] of 0% and a mortality at 0.0032 ppm [47] of 0%. The mortality at 0.08 ppm [48] was 2%, the mortality at 0.016 ppm [49] was 0% and the mortality at 0.4 ppm [50] was 9%. For the same molecule, the mortality at 2 ppm [51] was 4% and the mortality at 10 ppm [52] was 40%.
